Experimental data taken from publication PMC11213733, “Computational approaches identify a transcriptomic fingerprint of drug-induced structural cardiotoxicity” (Cell Biology and Toxicology, 2024).
Read-outs that look alike come from different tables or passages of the source.

Experiments:
[1] = test system: cardiac microtissues; assay: Transcriptomic profiling (mRNA-seq) and DESeq2 differential gene expression analysis in cardiac microtissues; settings: absolute log2(Fold-Change) > 1, FDR p ≤ 0.05
[2] = ref FDA label, cited from earlier work
[3] = test system: cardiac microtissues; assay: ATP depletion (CellTiter Glo Luminescent Cell Viability Assay) in cardiac microtissues; type: cell-based, human; settings: the concentration is the IC30 of ATP depletion, or cell death caused
Protocol: Cellular ATP concentrations were also assessed using the CellTiter Glo® Luminescent Cell Viability Assay as per the manufacturer’s instructions (Promega).

[4] = test system: cardiac microtissues; assay: Targeted qRT-PCR of ATAD3C, CDH13, IL6, PTX3, SLC7A5, UCHL1 in cardiac microtissues; type: cell-based, human; settings: Sorafenib 3.74 µM, Sunitinib 3.53 µM, Dasatinib 10.8 µM; for activity at 3.53 µM: Homo sapiens, read-out: % of control
Protocol: The experiment was performed with three technical replicates across 1-2 independent replicates.

[5] = test system: cardiac microtissues; assay: Ingenuity Pathway Analysis over-representation of differentially expressed genes (activation Z-score); type: cell-based, human; settings: 48hr high; Group 2

## CCN(CC)CCNC(=O)c1c(C)[nH]c(/C=C2\C(=O)Nc3ccc(F)cc32)c1C [Sunitinib Malate]
[1]; 6 hr, high concentration
  number of significant differentially expressed genes, 6hr high: 10
[1]; 6 hr, low concentration
  number of significant differentially expressed genes, 6hr low: 0
[1]; 48 hr, high concentration
  number of significant differentially expressed genes, 48hr high: 861
[1]; 48 hr, low concentration
  number of significant differentially expressed genes, 48hr low: 399
[1]; 72 hr, high concentration
  number of significant differentially expressed genes, 72hr high: 152
[1]; 72 hr, low concentration
  number of significant differentially expressed genes, 72hr low: 71
[2]; FDA label references heart failure or a decrease in left ventricular ejection fraction
  Structural cardiotoxin?: Y
[2]; compound annotation
  Functional cardiotoxin?: Y
[3]
  Transcriptomic high concentration (µM) = IC30 of ATP depletion: 3.53 µM
[4]; gene ATAD3C, Run 1
  activity at 3.53 µM: 85.2%
  2^-ΔΔCt of Individual reps, Treated 1: 0.6771
  2^-ΔΔCt of Individual reps, Treated 2: 0.9498
  2^-ΔΔCt of Individual reps, Treated 3: 0.9298
  Average 2^-ΔΔCt, Treated: 0.8522
[4]; gene CDH13, Run 1
  activity at 3.53 µM: 81.7%
  2^-ΔΔCt of Individual reps, Treated 1: 0.8001
  2^-ΔΔCt of Individual reps, Treated 2: 0.8203
  2^-ΔΔCt of Individual reps, Treated 3: 0.8552
  Average 2^-ΔΔCt, Treated: 0.8252
[4]; gene CDH13, Run 2
  activity at 3.53 µM: 32.5%
  2^-ΔΔCt of Individual reps, Treated 1: 0.3506
  2^-ΔΔCt of Individual reps, Treated 2: 0.356
  2^-ΔΔCt of Individual reps, Treated 3: 0.3542
  Average 2^-ΔΔCt, Treated: 0.3536
[4]; gene IL6, Run 1
  activity at 3.53 µM: 18.3%
  2^-ΔΔCt of Individual reps, Treated 1: 0.1962
  2^-ΔΔCt of Individual reps, Treated 2: 0.1722
  2^-ΔΔCt of Individual reps, Treated 3: 0.1837
  Average 2^-ΔΔCt, Treated: 0.184
[4]; gene IL6, Run 2
  activity at 3.53 µM: 3.18%
  2^-ΔΔCt of Individual reps, Treated 1: 0.1296
  2^-ΔΔCt of Individual reps, Treated 2: 0.008
  2^-ΔΔCt of Individual reps, Treated 3: 0.00254
  Average 2^-ΔΔCt, Treated: 0.04671
[4]; gene PTX3, Run 1
  activity at 3.53 µM: 46.8%
  2^-ΔΔCt of Individual reps, Treated 1: 0.5127
  2^-ΔΔCt of Individual reps, Treated 2: 0.4851
  2^-ΔΔCt of Individual reps, Treated 3: 0.4283
  Average 2^-ΔΔCt, Treated: 0.4754
[4]; gene PTX3, Run 2
  activity at 3.53 µM: 18.6%
  2^-ΔΔCt of Individual reps, Treated 1: 0.364
  2^-ΔΔCt of Individual reps, Treated 2: 0.159
  2^-ΔΔCt of Individual reps, Treated 3: 0.09578
  Average 2^-ΔΔCt, Treated: 0.2063
[4]; gene SLC7A5, Run 1
  activity at 3.53 µM: 87.2%
  2^-ΔΔCt of Individual reps, Treated 1: 0.9373
  2^-ΔΔCt of Individual reps, Treated 2: 0.8504
  2^-ΔΔCt of Individual reps, Treated 3: 0.8586
  Average 2^-ΔΔCt, Treated: 0.8821
[4]; gene SLC7A5, Run 2
  activity at 3.53 µM: 7.07%
  2^-ΔΔCt of Individual reps, Treated 1: 0.1881
  2^-ΔΔCt of Individual reps, Treated 2: 0.06312
  2^-ΔΔCt of Individual reps, Treated 3: 0.06588
  Average 2^-ΔΔCt, Treated: 0.1057
[4]; gene UCHL1, Run 1
  activity at 3.53 µM: 59.4%
  2^-ΔΔCt of Individual reps, Treated 1: 0.6206
  2^-ΔΔCt of Individual reps, Treated 2: 0.6021
  2^-ΔΔCt of Individual reps, Treated 3: 0.5702
  Average 2^-ΔΔCt, Treated: 0.5976
[4]; gene UCHL1, Run 2
  activity at 3.53 µM: 18.6%
  2^-ΔΔCt of Individual reps, Treated 1: 0.3214
  2^-ΔΔCt of Individual reps, Treated 2: 0.1175
  2^-ΔΔCt of Individual reps, Treated 3: 0.1882
  Average 2^-ΔΔCt, Treated: 0.209
[5]
  activation Z-score: Actin Cytoskeleton Signaling: -3.317
  activation Z-score: Actin Nucleation by ARP-WASP Complex: -2.646
